{
  "source": "patent US7968526B2",
  "about": "“Antisense oligonucleotides directed to ribonucleotide reductase R2 and uses thereof in the treatment of cancer” (Lorus Therapeutics Inc., priority 2003, dated 2011)",
  "key": {"[1]": {"system": "Hela S3 human cervix epitheloid carcinoma cells", "test": "Hela S3 hydroxyurea resistant cervix carcinoma xenograft in SCID mice", "assay_type": "in vivo, human cells in mice", "method": "BxPC-3 is a gemcitabine resistant call line. […] Gemcitabine was administered intravenously every three days at a dose of 100 mg/kg. Antitumour activities were estimated by the inhibition of tumour volume, which was measured with caliper. Each point represents mean tumour volume calculated from 10 animals per experimental group. […] Hela S3 is a hydroxyurea resistant cell line. […] Hydroxyurea was administered intraperitoneally every day at a dose of 250 mg/kg for 10 days. Cisplatin was administered intravenously once a week for three weeks at a dose of 4 mg/kg. Antitumour activities were estimated by the inhibition of tumour volume, which was measured with caliper. Each point represents mean tumour volume calculated from 10 animals per experimental group. […] Cisplatin was administered intravenously once a week for three weeks at a dose of 4 mg/kg. Taxol was administered intravenously once a week for three weeks at a dose of 10 mg/kg. Antitumour activities were estimated by the inhibition of tumour volume, which was measured with caliper. Each point represents mean tumour volume calculated from 10 animals per experimental group. […] Taxol was administered i.p. once a week at a dose of 10 mg/kg. Antitumour activities were estimated by the inhibition of tumour volume (FIG. 12A), which was measured with calipers. Each point represents mean tumour volume calculated from 10 animals per experimental group. Animals were sacrificed and tumour weights taken at the end of the study (FIG. 12C). […] The effects of combined treatment were greater than either treatment alone. […] Cisplatin was administered intravenously once a week for four weeks at a dose of 4 mg/kg. Taxol was administered intravenously once a week for four weeks at a dose of 20 mg/kg. Antitumour activities were estimated by the inhibition of tumour volume, which was measured with caliper. Each point represents mean tumour volume calculated from 9-10 animals per experimental group. […] Cisplatin was administered intravenously once a week for four weeks at a dose of 4 mg/kg. Antitumour activities were estimated by the inhibition of tumour volume, which was measured with caliper. Each point represents mean tumour volume calculated from 10 animals per experimental group. At the end of the study the animals were sacrificed and tumours weighed. […] Taxol was administered i.p. once a week at a dose of 10 mg/kg. Anti-tumour activity was estimated by the inhibition of tumour volume, which was measured with caliper. Each point represents mean tumour volume calculated from 10 animals per experimental group. In addition animals were sacrificed and tumour weights taken at the end of the study. […] CPT-11 was administered i.p. for 5 days at a dose of 20 mg/kg/day. Antitumour activities were estimated by the inhibition of tumour volume, which was measured with caliper. Each point represents mean tumour volume calculated from 10 animals per experimental group. Tumour weights were measured after animals were sacrificed at the end of the treatment. These cells are not resistant to CPT-11 which was used as a positive control."}, "[2]": {"test": "Pharmacokinetics in the rat (plasma, CE method)", "assay_type": "in vivo", "method": "The toxicokinetics and tissue distribution of SEQ ID NO:1 (and related oligonucleotide metabolites obtained from exonuclease-mediated chain shortening) were determined in rats and monkeys. In addition to investigating the pharmacokinetics and tissue distribution of SEQ ID NO:1, the purpose of the studies was to correlate adverse effects in the animal studies to the concentrations of SEQ ID NO:1 (and metabolites) in tissue and blood. A capillary electrophoresis (CE) method was used to measure the concentrations of SEQ ID NO:1 (and metabolites) in plasma and tissues.\nIn a pharmacokinetic study, groups of male rats were administered one or two bolus i.v. injections (tail vein) of SEQ ID NO:1 at a dose of 50 mg/kg (295 mg/m^2) and intravenously infused (abdominal vena cava) for up to 48 h at a dose of 50 mg/kg/day (295 mg/m^2/day). Blood samples were collected into EDTA-containing tubes from subsets of animals in each group at various sampling times up to 56 h after initiation of infusion or bolus injection. Parent SEQ ID NO:1 concentrations were measured in plasma by a validated CE method."}, "[3]": {"system": "C8161 human melanoma cells", "test": "Experimental metastasis of C8161 cells treated ex vivo, lung nodules in CD-1 nude mice (4.2)", "parameters": "species or system human cells in mice", "method": "• 4.1 Experimental metastasis of mouse fibrosarcoma (R3) cells treated with different antisense oligonucleotides in a syngenetic model was estimated as follows. Aliquots of R3 cell suspension were seeded into 100 mm tissue culture dishes at a density of 2×10^6 and incubated overnight at 37° C. in α-MEM medium supplemented with 10% FBS. Cells were washed once in 10 ml of PBS and treated with 0.2 μM of SEQ ID NO: 1 in the presence of cationic lipid (Lipofectin reagent, final concentration, 10 μg/ml, Gibco BRL) for 4 hr. Cells were treated with either saline alone (C) or lipofectin alone (RE) as controls. Oligonucleotide was removed by washing the cells once with PBS and the cells were trypsinized. Cells were then collected by centrifugation, and approximately 1×10^5 cells suspended in 0.2 ml of PBS were injected into the tail veins of 10 week-old C3H female mice. Estimates of the number of lung tumours were made 20 days later, after excised lungs from individual mice were stained with picric acid dye solution (75% picric acid, 20% formaldehyde, 5% glacial acetic acid). Bars represent mean number of tumour nodules in lungs obtained from 4 to 5 animals per experimental group. […] Aliquots of C8161 cell suspension were seeded into 100 mm tissue culture dishes at a density of 2×10^6 and incubated overnight at 37° C. in α-MEM medium supplemented with 10% FBS. […]"}, "[4]": {"system": "CB7 Friend retrovirus-induced mouse Erythroleukaemia cells", "test": "Survival of SCID mice bearing mouse erythroleukaemia (CB7)", "assay_type": "in vivo", "conditions": "10 mg/kg i.v. every second day, stopped at day 71, untreated all died within 36 days"}, "[5]": {"conditions": "50 mg/kg/day continuous intravenous infusion"}},
  "note": "Entries after “also recorded” stand apart in the source; their conditions may differ.",
  "data": [
    {"substance": "5′-GGCTAAATCGCTCCACCAAG-3′ (all phosphorothioate, sugars by position and methylation of C not given here) [SEQ ID NO: 1, fully phosphorothioated antisense oligonucleotide that hybridizes to the coding region of R2 mRNA]", "values": [
      {"measurement": "Tumour weight as % of saline control", "setting": "[1]; Hela S3 (cervix), hydroxyurea resistant, SCID, SEQ ID NO:1 10 mg/kg i.v. every other day 6 times, Hydroxyurea 250 mg/kg i.p. daily 10 days, Cisplatin 4 mg/kg i.v. weekly x3", "value": 24, "unit": "%"},
      {"measurement": "Antitumour effect (tumour volume, FIG. 10)", "setting": "[1]; Hela S3 hydroxyurea resistant, SCID mice, SEQ ID NO:1 10 mg/kg i.v. every other day, Hydroxyurea 250 mg/kg i.p. daily, Cisplatin 4 mg/kg i.v. weekly", "value": "significant delay of tumour growth compared to saline control; also recorded: superior to the inhibitory effects observed with Cisplatin alone"},
      {"measurement": "AUC(0-24)", "setting": "[2]; [5]", "value": 208, "unit": "µg·h/mL"},
      {"measurement": "Cl (plasma clearance)", "setting": "[2]; [5]", "value": 3.6, "unit": "mL/min/kg"},
      {"measurement": "Css (mean plasma steady state concentration)", "setting": "[2]; [5]", "value": 9.62, "unit": "µg/mL"},
      {"measurement": "Time after infusion initiation at which steady state level was achieved", "setting": "[2]; [5]", "value": "approximately 3 hr"},
      {"measurement": "AUC(0-24)", "setting": "[2]; 50 mg/kg/day i.v. bolus", "value": 369, "unit": "µg·h/mL"},
      {"measurement": "AUC(0-inf)", "setting": "[2]; 50 mg/kg/day i.v. bolus", "value": 650, "unit": "µg·h/mL"},
      {"measurement": "AUC(0-t)", "setting": "[2]; 50 mg/kg/day i.v. bolus", "value": 637, "unit": "µg·h/mL"},
      {"measurement": "Cl (plasma clearance)", "setting": "[2]; 50 mg/kg/day i.v. bolus", "value": 2.57, "unit": "mL/min/kg"},
      {"measurement": "Kel", "setting": "[2]; 50 mg/kg/day i.v. bolus", "value": 0.5109, "unit": "h⁻¹"},
      {"measurement": "T1/2 (plasma half-life)", "setting": "[2]; 50 mg/kg/day i.v. bolus", "value": 81.6, "unit": "min"},
      {"measurement": "Tmax", "setting": "[2]; 50 mg/kg/day i.v. bolus", "value": 4.98, "unit": "min"},
      {"measurement": "Cmax", "setting": "[2]; 50 mg/kg/day i.v. bolus, after second bolus injection", "value": 679, "unit": "µg/mL"},
      {"measurement": "Formation of lung colonies / nodules", "setting": "[3]; C8161 cells treated with 0.2 μM + Lipofectin for 4 hr before i.v. injection into CD-1 nude mice", "value": "significantly reduced the formation of lung colonies; also recorded: significantly reduces the extent of lung nodule formation"},
      {"measurement": "Decrease in the number of tumour metastases to lungs", "setting": "[3]; Human Melanoma (ex vivo and in vivo)", "value": "Decrease by approximately 95% in the number"},
      {"measurement": "Survival of mice", "setting": "[4]", "value": "survived beyond day 71 except one mouse, which died at day 22"}
    ]}
  ]
}
